According to PMC9158366, “The inhibition of tamoxifen on UGT2B gene expression and enzyme activity in rat liver contribute to the estrogen homeostasis dysregulation” (BMC Pharmacology & Toxicology, 2022):

Target: T1, UGT2B7 (Homo sapiens, UniProt P16662)
T1 sequence (P16662 24-529): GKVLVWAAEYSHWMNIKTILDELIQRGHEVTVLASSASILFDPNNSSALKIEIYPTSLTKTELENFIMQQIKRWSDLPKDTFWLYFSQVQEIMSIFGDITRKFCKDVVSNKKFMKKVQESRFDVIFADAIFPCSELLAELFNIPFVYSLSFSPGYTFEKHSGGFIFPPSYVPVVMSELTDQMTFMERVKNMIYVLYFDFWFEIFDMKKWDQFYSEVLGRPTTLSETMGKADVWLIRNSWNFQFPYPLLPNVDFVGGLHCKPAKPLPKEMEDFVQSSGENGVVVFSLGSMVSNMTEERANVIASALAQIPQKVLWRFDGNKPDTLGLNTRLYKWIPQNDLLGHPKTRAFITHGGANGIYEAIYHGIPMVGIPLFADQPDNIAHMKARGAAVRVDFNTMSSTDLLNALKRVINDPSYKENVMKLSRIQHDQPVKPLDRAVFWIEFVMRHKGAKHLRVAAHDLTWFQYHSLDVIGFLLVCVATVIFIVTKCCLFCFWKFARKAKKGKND
Experiment: inhibition of naloxone glucuronidation in human liver microsomes, HPLC
Assay type: biochemical

Q: With `CC/C(=C(\c1ccccc1)c1ccc(OCCN(C)C)cc1)c1ccccc1` [tamoxifen] as the compound, how does the Ki read?
A: 37.7 µM
